Measurements taken from PMC9552235.

Assay: Macrolactamisation (Trp/pyrroloindoline CO2H + Val NH2): HATU 1.2 equiv pre-activation, slow syringe-pump addition to Et3N (15 equiv; 1.2 equiv for 12), after TFA N-Boc removal
Settings: CH2Cl2/DMF (10:1 to 40:1), 0.6 mM, 2 steps

Question: For C=CC(C)(C)[C@]12C[C@@H]3C(=O)N[C@@H](C(C)C)C(=O)Nc4ccccc4C(=O)N(c4ccccc41)[C@H]2N3C(C)=O [endo-40 -> D-Trp-regio-endo-4], which ring closure, yield over several steps (from C=CC(C)(C)[C@@]12C[C@H](C(=O)O)N(C(C)=O)[C@@H]1N(C(=O)c1ccccc1NC(=O)[C@@H](N)C(C)C)c1ccccc12, 12-membered ring, 24.0 h) is on record?
Answer: Its ring closure, yield over several steps is 61%.

Question: For CC(=O)N[C@@H]1Cc2cn(c3ccccc23)C(=O)c2ccccc2NC(=O)[C@H](C(C)C)NC1=O [H-L-Val-(2-aminobenzoyl)-(N-indole)-Ac-D-Trp-OH], which ring closure, yield over several steps (from CC(=O)N[C@H](Cc1cn(C(=O)c2ccccc2NC(=O)[C@@H](N)C(C)C)c2ccccc12)C(=O)O, 13-membered ring, 84.0 h) is on record?
Answer: Its ring closure, yield over several steps is 14%.

Question: Which ring closure, yield over several steps (from C=CC(C)(C)[C@]12C[C@@H](C(=O)O)N(C(C)=O)[C@H]1N(C(=O)c1ccccc1NC(=O)[C@@H](N)C(C)C)c1ccccc12, 12-membered ring, 22.0 h) does the source give for C=CC(C)(C)[C@@]12C[C@H]3C(=O)N[C@@H](C(C)C)C(=O)Nc4ccccc4C(=O)N(c4ccccc41)[C@@H]2N3C(C)=O [(S)-endo-40 -> L-Trp-regio-endo-4] here?
Answer: The ring closure, yield over several steps was 37%.

Question: Which ring closure, yield over several steps (from C=CC(C)(C)[C@]12C[C@H](C(=O)O)N(C(C)=O)[C@H]1N(C(=O)c1ccccc1NC(=O)[C@@H](N)C(C)C)c1ccccc12, 12-membered ring, 37.0 h) does the source give for C=CC(C)(C)[C@@]12C[C@@H]3C(=O)N[C@@H](C(C)C)C(=O)Nc4ccccc4C(=O)N(c4ccccc41)[C@@H]2N3C(C)=O here?
Answer: The ring closure, yield over several steps was 0%.

Question: Which ring closure, yield over several steps (from C=CC(C)(C)[C@@]12C[C@@H](C(=O)O)N(C(C)=O)[C@@H]1N(C(=O)c1ccccc1NC(=O)[C@@H](N)C(C)C)c1ccccc12, 12-membered ring, 15.0 h) does the source give for C=CC(C)(C)[C@]12C[C@H]3C(=O)N[C@@H](C(C)C)C(=O)Nc4ccccc4C(=O)N(c4ccccc41)[C@H]2N3C(C)=O [(S)-exo-40 -> L-Trp-regio-exo-4 (moderately pure, unstable)] here?
Answer: Its ring closure, yield over several steps is 21%.
